Here are results for two molecules from ChEMBL document CHEMBL1132873, “Synthesis and structural analysis of the active enantiomer of famoxadone, a potent inhibitor of cytochrome bc1” (Bioorg Med Chem Lett, 2000).

For the test, the species on record is Rattus norvegicus. The test is described as follows: Compound was tested for inhibition of mitochondrial electron transport. The test is classed as functional.

A word on the IC50: it is the concentration that gives 50% inhibition. A higher IC50 goes with a need for much substance.

Regarding `C[C@@]1(c2ccc(Oc3ccccc3)cc2)OC(=O)N(Nc2ccccc2)C1=O` [FAMOXADONE], the half-maximal inhibitory concentration (IC50) was found to be 11 nM.
The result for `CN(c1ccccc1)N1C(=O)O[C@@](C)(c2ccc(Oc3ccccc3)cc2)C1=O` reads 35 nM.
